Where “and” joins values, the source holds several entries; their conditions need not be identical. Identical values can stand only once. Like-named read-outs stand apart in the source and are kept apart here.
Experiments:
[1] = system: normal human lung fibroblasts (Wi-38); assay: MTT cytotoxicity screening on normal human lung fibroblasts (Wi-38); format: cell-based; conditions: for IC50: Homo sapiens; for IC50 / EC100: Wi-38, 72 h, MTT, mean ± SEM; for EC100: concentration at 100% cell viability
From the text: (§1) All derivatives were subjected to preliminary cytotoxicity screening on normal human lung fibroblasts (Wi-38) for selectivity assessment, followed by anticancer evaluation against MDA-MB231, Caco-2, and HepG-2 cells compared to the reference multitarget chemotherapeutic agent doxorubicin (Dox) by MTT assay. It is worth mentioning that previous studies reported that Dox inhibits the VEGF pathway which is the main anticancer target of the current study via various mechanisms.
(§2) The compounds’ cytotoxicity on normal and cancer cells was assayed by MTT as reported and detailed in the Supplementary Materials. […]
(§3) 2.1. Cytotoxicity screening on normal human lung fibroblasts (Wi-38)
(§4) The normal human lung fibroblast Wi-38 cell line was used to detect cytotoxicity of the studied compounds. Wi-38 cell line was cultured in DMEM medium-contained 10 % fetal bovine serum (FBS), seeded as 5x10^3 cells per well in 96-well cell culture plate, and incubated at 37 °C in 5 % CO2 incubator. After 24 h for cell attachment, serial concentrations (25-800 nM) of the synthetic compounds and currently used chemotherapy (doxorubicin) were incubated with Wi-38 cells for 72 h. Cell viability was assayed by the MTT method. Twenty microliters of 5 mg/ml MTT (Sigma, USA) were added to each well and the plate was incubated at 37 °C for 3 h. Then MTT solution was removed, 100 µl DMSO was added and the absorbance of each well was measured with a microplate reader (BMG LabTech, Germany) at 570 nm. Plot of Wi-38 cell […]
(§5) compounds (8 and 9) and the reference chemotherapy (Dox) is illustrated in figure 39-A. The effective […]
(§6) was estimated by the Graphpad Instat software. Additionally, morphology of Wi-38 before and after […]
microscope with a digital camera (Olympus, Japan). […]

HepG-2 = assay: MTT anticancer activity, HepG-2; format: cell-based, human; conditions: for IC50: Homo sapiens, HepG2, HepG-2, 72 h, MTT, mean ± SEM; for SI: ratio IC50 on normal cells (Wi-38) / IC50 on HepG-2
From the text: as §1, §2, §3, §4, §5, §6
(§7) microscope with a digital camera (Olympus, Japan).
(§8) 2.2. Determination of the anticancer activity
The anticancer effect of the above-mentioned compounds, in comparison with doxorubicin (Dox), was assayed using three human cancer cell lines. Colon cancer cell line (Caco-2) was cultured in DMEM (Lonza, USA) contained with 10 % FBS while liver cancer cell line (HepG-2) and triple-negative breast cancer cell line (MDA- MB 231) were cultured in RPMI-1640 (Lonza, U SA) supplemented with 10 % FBS. […]
compounds were incubated with three cancer cell lines for 72 h at 37 °C in a 5 % CO2 incubator. MTT method was done as described above. Plots of cancer cells viability (%) and growth inhibition (%) of the studied […]
(§9) illustrated in figure 39. […]
(§10) The half-maximal inhibitory concentration (IC50) values were calculated using the Graphpad Instat […]
(§11) safest anticancer compounds were investigated using phase-contrast inverted microscope with a digital […]
(§12) ratio of IC50 value of normal cells to IC50 value of each studied cancer cell lines.
(§13) Figure S40. Plot of (A) Wi-38 cell viability (%) and (B-D) growth inhibition (%) of cancer cell lines with […]

Caco-2 = assay: MTT anticancer activity, Caco-2; format: cell-based, human; conditions: for IC50: Homo sapiens, Caco-2, 72 h, MTT, mean ± SEM
From the text: as §1, §2, §3, §4, §5, §6, §7, §8
(§14) The anticancer effect of the above-mentioned compounds, in comparison with doxorubicin (Dox), was assayed using three human cancer cell lines. Colon cancer cell line (Caco-2) was cultured in DMEM (Lonza, USA) contained with 10 % FBS while liver cancer cell line (HepG-2) and triple-negative breast cancer cell line (MDA- MB 231) were cultured in RPMI-1640 (Lonza, U SA) supplemented with 10 % FBS. […] After 24h, serial concentrations (0.2-125 nM) of the tested compounds were incubated with three cancer cell lines for 72 h at 37 °C in a 5 % CO2 incubator. MTT method was done as described above. Plots of cancer cells viability (%) and growth inhibition (%) of the studied […]
as §9, §10, §11, §12, §13

MDA-MB 231 = assay: MTT anticancer activity, MDA-MB 231; format: cell-based, human; conditions: for IC50: Homo sapiens, MDA-MB 231, 72 h, MTT, mean ± SEM; for SI: ratio IC50 on normal cells (Wi-38) / IC50 on MDA-MB 231
From the text: as §1, §2, §3, §4, §5, §6, §7, §8, §14, §9, §10, §11, §12, §13

MMP-2 = target: T1, MMP-2 (Homo sapiens, UniProt P08253); assay: MMP-2 inhibitor screening kit (colorimetric); format: biochemical; conditions: in vitro MMP-2
T1 construct: read from the 'ab' catalogue number) ab139446
Description: VEGFR-2 inhibition was detected by VEGFR-2 (KDR) Kinase Assay Kit-BPS Bioscience Corporation catalog # 40325 [107]. MMP-2 inhibitory activities were evaluated utilizing MMP-2 inhibitor screening kit (Colorimetric) catalog # ab139446 [108]. CA II inhibition assay was performed as reported. The protocols are detailed in the Supplementary Materials.
2.4. MMP-2 inhibitory activity assay […]
inhibitor screening kit (Colorimetric) catalog # ab139446 following the manufacturer’s instructions. The assay uses a thiopeptide as a chromogenic substrate. The MMP cleavage site peptide bond is replaced by a thioester bond in the thiopeptide. Hydrolysis of this bond by MMP-2 produces a sulfhydryl group, which reacts with Ellman’s reagent to form 2-nitr o-5-thiobenzoic acid that can be detected by its absorbance at 412 nm. The pr ocedure of MMP -2 inhibiti on assay is as foll owing
- Add test compounds and diluted enzyme solution to the microplate wells.
- Simultaneously establish the following control wells.
- Vehicle control contains MMP enzyme and vehicle used in delivering test compound (DMSO, concentration […]
- bring the total volume of all controls to 50 µL. Pre-incubate the plate for 10 min. at assay temperature to 37°C.
- Run the enzymatic reaction. […]
inhibited), which were calculated from dose-response curve obtained using eight tested concentrations of the inhibitor and carried out in duplicate. […]

[2] = ratio IC50 on normal cells (Wi-38) / IC50 on Caco-2

T1 sequence (P08253 110-446 limits assumed): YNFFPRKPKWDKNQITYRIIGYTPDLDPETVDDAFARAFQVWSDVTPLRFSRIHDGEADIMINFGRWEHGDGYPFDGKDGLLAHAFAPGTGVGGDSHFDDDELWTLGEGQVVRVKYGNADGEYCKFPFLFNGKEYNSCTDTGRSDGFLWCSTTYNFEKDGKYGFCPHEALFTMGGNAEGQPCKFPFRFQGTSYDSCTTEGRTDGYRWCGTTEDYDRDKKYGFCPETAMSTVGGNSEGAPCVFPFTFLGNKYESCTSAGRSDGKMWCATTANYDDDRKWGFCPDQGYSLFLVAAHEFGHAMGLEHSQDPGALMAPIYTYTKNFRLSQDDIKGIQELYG

Row | SMILES | IC50 [1] [nM] | EC100 [1] | IC50 (HepG-2) [nM] | SI (HepG-2) | IC50 (Caco-2) [nM] | SI (Caco-2; [2]) | IC50 (MDA-MB 231) [nM] | SI (MDA-MB 231) | melting point [°C] | EC100 ([1]; listed as Dox) [nM] | morphological alteration of treated cells ([1]; Wi-38 at 30 nM, phase-contrast microscopy) | SI (Caco-2) | IC50 (MMP-2) [nM]
1 | Cc1cc(=O)[nH]c(NN=C[C@H](O)[C@@H](O)[C@H](O)CO)n1 [Compound 2, D-Xylose-(6-methyl-4-oxo-2-pyrimidinyl)hydrazone] | 92.86 ± 0.35 | 46.35 ± 1.35 nM | 3550 ± 35.5 | 0.02 | 128 ± 1.48 | 0.73 | 100 ± 2.99 | 0.93 | 215 to 216 | – | – | – | –
2 | Cc1cc(=O)[nH]c(NN=C[C@H](O)[C@@H](O)[C@H](O)[C@H](O)CO)n1 [Compound 3, D-Glucose-(6-methyl-4-oxo-2-pyrimidinyl)hydrazone] | 176 ± 4.14 | 84.54 ± 1.00 nM | 3490 ± 182 | 0.05 | 96.49 ± 0.09 | 1.83 | 75.8 ± 1.25 | 2.33 | 240 to 242 | – | – | – | –
3 | Cc1cc(=O)[nH]c(NN=C[C@@H](O)[C@@H](O)[C@H](O)[C@H](O)CO)n1 [Compound 4, D-Mannose-(6-methyl-4-oxo-2-pyrimidinyl)hydrazone] | 128 ± 2.96 | 64.61 ± 0.68 nM | 4940 ± 101 | 0.03 | 108.1 ± 0.62 | 1.19 | 93.7 ± 2.69 | 1.37 | 220 to 222 | – | – | – | –
4 | Cc1cc(=O)[nH]c(NN=C[C@H](O)[C@@H](O)[C@@H](O)[C@H](O)CO)n1 [Compound 5, D-Galactose-(6-methyl-4-oxo-2-pyrimidinyl)hydrazone] | 102 ± 1.25 | 48.16 ± 1.66 nM | 3820 ± 126 | 0.03 | 111 ± 2.94 | 0.92 | 83.3 ± 3.06 | 1.23 | 213 to 214 | – | – | – | –
5 | CC(=O)OCC(OC(C)=O)C(OC(C)=O)C(OC(C)=O)C1N(C(C)=O)N(C(C)=O)c2nc(C)cc(=O)n21 [Compound 6, N^1,N^2-Diacetyl-3-(1,2,3,4-tetra-O-acetyl-D-xylo-tetritol-1-yl)-7-methyl-5-oxo-1,2,4-triazolo[4,3-a]pyrimidine] | 587.1 ± 4.48 | 353.7 ± 9.54 nM | 4628 ± 33 | 0.13 | 54.06 ± 0.47 | 10.86 | 46.3 ± 3.32 | 12.69 | 112 to 114 | – | – | – | –
6 | CC(=O)OCC(OC(C)=O)C(OC(C)=O)C(OC(C)=O)C(OC(C)=O)C1N(C(C)=O)N(C(C)=O)c2nc(C)cc(=O)n21 [Compound 7, N^1,N^2-Diacetyl-3-(1,2,3,4,5-penta-O-acetyl-D-galacto-pentitol-1-yl)-7-methyl-5-oxo-1,2,4-triazolo[4,3-a]pyrimidine] | 872 ± 16.3 | 664.3 nM and 664.3 ± 26.60 nM | 3730 ± 252 | 0.23 | 47.44 ± 0.38 | 18.39 | 39.99 ± 0.04 | 21.82 | 97 to 100 | – | – | – | –
7 | CC(=O)OC[C@@H](OC(C)=O)[C@@H](OC(C)=O)[C@H](OC(C)=O)[C@H](OC(C)=O)[C@@H]1N(C(C)=O)N(C(C)=O)c2nc(C)cc(=O)n21 [Compound 9, N^1,N^2-Diacetyl-3-(1,2,3,4,5-penta-O-acetyl-D-manno-pentitol-1-yl)-5-methyl-7-oxo-1,2,4-triazolo[4,3-a]pyrimidine] | – | – | – | – | – | – | – | – | 100 to 102 | – | – | – | –
8 | COc1cccc2c1C(=O)c1c(O)c3c(c(O)c1C2=O)C[C@@](O)(C(=O)CO)C[C@@H]3O[C@H]1C[C@H](N)[C@H](O)[C@H](C)O1 [Doxorubicin, doxorubicin, reference compound] | 30 ± 1 | 11.50 ± 0.50 nM | 22.5 ± 10 | 1.33 | 48.3 ± 30 | – | 10.6 ± 0.1 | 2.83 | – | 11.5 | morphological damage | 0.62 | –
9 | COc1ccc(S(=O)(=O)N(CC(=O)NO)CC(C)C)cc1 [NNGH, N-Isobutyl-N-(4-methoxyphenylsulfonyl)glycyl hydroxamic acid] | – | – | – | – | – | – | – | – | – | – | – | – | 298 ± 20.2
